This passage reports IC50 results from patent publication US20250313535A1, “ALPHA 4 BETA 7 INTEGRIN MODULATORS AND USES THEREOF” (DICE MOLECULES SV, INC., priority 2022, published 2025).

One experiment concerns the target α4β7 integrin (Homo sapiens (Human), UniProt P13612+P26010). Briefly: Integrin Adhesion Assay: Protocol 1 (MAdCAM-coated plate, RPMI-8866 cells, CellTiter GLO readout). Type of experiment: cell-based. The procedure: α4β7 and α4β1 inhibition was evaluated in vitro using at least one of the following procedures:
Integrin Adhesion Assay: Protocol 1
MAdCAM (R&D Systems, 0.1 ug) was diluted in 50 μL PBS, added to each well of an opaque ELISA plate (Thermo), and incubated overnight at 4° C. Coated plates were washed once with PBS and then blocked with 200 μL of assay buffer (10 mM HEPES, 150 mM NaCl, 1 mM MnCl2, 0.1 mM CaCl2), 1% BSA) for 1 hour at 37° C. and 5% CO2. After incubation, buffer was aspirated from the plates and 50 μL of fresh assay buffer is added. Compounds were added by a compouns dispenser (Tecan) and DMSO concentration was normalized to 1% across each plate. 50 μL of RPMI-8866 cells (2×10^6 per mL) were added to each well and the plates were incubated for 1 hour at 37° C. and 5% CO2. After incubation, plates were allowed to cool to RT for 10 minutes before being washed four times in assay buffer by an automated plate washer (BioTek). After washing, 100 μL of a 1:1 mixture of assay buffer and CellTiter GLO 2.0 reagent (Promega) were added to each well. Plates were mixed for 2 minutes at 1000 rpm and then allowed to incubate an additional 10 minutes before reading out luminescence on a Tecan Spark plate reader. Raw data was converted to percent inhibition based on DMSO only and control compound wells, and curves were analyzed by 4-parameter fit within Dotmatics software.

A further experiment has as its target α4β1 integrin (Homo sapiens (Human), UniProt P05556+P13612). Briefly: Integrin Adhesion Assay: Protocol 5 (VCAM-coated plate, RPMI-8866 cells with stable LOF mutation of the ITGB7 gene). Type of experiment: cell-based. In a few lines: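 RPMI-8866 B cells with CRISPR/Cas9 ITGB7 knockout (clonal, verified by flow cytometry) adhered to VCAM-coated wells for 1 h at 37° C in HEPES/NaCl buffer with 1 mM MnCl2, 0.1 mM CaCl2, 1% BSA, 1% DMSO. Bound cells quantified by CellTiter-Glo luminescence after washing; % inhibition versus DMSO and control, 4-parameter fit.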

Where [1] appears, read: RPMI-8866 cells with stable LOF mutation of the ITGB7 gene, read-out: Mean IC50 α4β1 KO^b.
The mark [2] stands for this setting: Protocol 5, RPMI-8866 cells with LOF mutation of ITGB7, VCAM, read-out: Mean IC50 α4β1 KO.

pIC50: −log10 of the molar value. Where two headings read alike, the source gives them in different places.

Sequence of α4β7 integrin (P13612 34-1032): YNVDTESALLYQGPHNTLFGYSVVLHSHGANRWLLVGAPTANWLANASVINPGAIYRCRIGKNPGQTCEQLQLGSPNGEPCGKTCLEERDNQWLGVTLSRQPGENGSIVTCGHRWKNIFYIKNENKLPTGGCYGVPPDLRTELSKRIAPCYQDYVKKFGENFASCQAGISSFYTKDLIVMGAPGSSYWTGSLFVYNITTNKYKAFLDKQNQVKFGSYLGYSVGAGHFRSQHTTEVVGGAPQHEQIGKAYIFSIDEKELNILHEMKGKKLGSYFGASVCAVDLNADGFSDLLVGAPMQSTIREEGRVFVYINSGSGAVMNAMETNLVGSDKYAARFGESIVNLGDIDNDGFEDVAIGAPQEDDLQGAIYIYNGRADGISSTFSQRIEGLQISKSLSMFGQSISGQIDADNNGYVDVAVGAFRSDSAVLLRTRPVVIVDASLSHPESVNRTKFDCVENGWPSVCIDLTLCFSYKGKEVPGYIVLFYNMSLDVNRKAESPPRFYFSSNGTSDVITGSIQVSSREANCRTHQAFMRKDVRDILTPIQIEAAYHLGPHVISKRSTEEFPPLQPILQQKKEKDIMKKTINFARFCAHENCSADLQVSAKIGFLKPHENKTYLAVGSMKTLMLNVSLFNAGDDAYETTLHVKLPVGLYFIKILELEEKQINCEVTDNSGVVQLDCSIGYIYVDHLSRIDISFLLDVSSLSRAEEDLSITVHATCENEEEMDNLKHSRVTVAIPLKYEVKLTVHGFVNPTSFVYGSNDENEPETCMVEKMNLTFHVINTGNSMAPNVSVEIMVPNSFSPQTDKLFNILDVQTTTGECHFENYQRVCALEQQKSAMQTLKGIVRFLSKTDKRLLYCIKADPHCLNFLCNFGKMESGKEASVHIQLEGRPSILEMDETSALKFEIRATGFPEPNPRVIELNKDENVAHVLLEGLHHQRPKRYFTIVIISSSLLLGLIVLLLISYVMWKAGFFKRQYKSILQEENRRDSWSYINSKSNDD
Sequence of α4β7 integrin (P26010 20-798): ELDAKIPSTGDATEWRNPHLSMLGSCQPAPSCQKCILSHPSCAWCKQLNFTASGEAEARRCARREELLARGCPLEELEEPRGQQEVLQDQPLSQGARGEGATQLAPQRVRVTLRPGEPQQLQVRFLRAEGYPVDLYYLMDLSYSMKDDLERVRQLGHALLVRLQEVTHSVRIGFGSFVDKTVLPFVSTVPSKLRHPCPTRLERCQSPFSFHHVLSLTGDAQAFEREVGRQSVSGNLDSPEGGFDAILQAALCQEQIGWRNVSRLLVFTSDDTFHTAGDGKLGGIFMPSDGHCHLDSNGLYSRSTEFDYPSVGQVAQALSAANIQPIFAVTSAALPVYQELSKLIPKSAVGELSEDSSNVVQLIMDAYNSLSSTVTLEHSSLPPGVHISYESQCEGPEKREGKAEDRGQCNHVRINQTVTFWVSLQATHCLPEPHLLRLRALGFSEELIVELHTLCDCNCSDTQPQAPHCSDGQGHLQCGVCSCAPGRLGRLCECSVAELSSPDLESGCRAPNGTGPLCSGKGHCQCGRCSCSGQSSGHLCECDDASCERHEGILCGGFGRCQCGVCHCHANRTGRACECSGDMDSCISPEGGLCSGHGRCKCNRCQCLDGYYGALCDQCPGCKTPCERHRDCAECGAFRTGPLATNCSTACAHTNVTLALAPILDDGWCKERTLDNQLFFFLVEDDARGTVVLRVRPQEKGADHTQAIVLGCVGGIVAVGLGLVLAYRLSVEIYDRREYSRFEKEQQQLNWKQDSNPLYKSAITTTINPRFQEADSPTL
Sequence of α4β1 integrin (P13612 34-1032): as the sequence (P13612 34-1032) above
Sequence of α4β1 integrin (P05556 21-798): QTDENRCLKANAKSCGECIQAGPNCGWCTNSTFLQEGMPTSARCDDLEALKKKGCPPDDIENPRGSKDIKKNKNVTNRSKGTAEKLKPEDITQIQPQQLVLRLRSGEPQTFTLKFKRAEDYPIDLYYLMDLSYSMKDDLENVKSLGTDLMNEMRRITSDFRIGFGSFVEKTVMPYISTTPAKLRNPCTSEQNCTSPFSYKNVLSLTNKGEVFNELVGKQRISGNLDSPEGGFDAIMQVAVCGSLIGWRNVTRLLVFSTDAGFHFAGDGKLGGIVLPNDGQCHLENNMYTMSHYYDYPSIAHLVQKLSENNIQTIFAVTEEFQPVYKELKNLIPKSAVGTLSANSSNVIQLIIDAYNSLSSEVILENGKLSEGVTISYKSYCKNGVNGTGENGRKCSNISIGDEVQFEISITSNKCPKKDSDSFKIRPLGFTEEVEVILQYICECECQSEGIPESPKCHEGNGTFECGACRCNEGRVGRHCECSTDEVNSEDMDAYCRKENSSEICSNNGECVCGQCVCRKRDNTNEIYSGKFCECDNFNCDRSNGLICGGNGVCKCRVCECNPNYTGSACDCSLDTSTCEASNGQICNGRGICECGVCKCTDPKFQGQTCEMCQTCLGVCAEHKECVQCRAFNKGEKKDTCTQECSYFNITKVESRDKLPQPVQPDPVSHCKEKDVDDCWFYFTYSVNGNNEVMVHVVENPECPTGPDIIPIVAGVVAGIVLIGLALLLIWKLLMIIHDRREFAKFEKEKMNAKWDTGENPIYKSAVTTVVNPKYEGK

In general, pIC50 refers to the IC50 on a negative log10 scale, so that one unit is a factor of ten. For `Cn1c(=O)c(-c2cccc3c(C[C@H](NC(=O)c4c(F)cc(N5CCOC[C@@H]5C(F)(F)F)cc4F)C(=O)O)cccc23)c(C(F)(F)F)c2ccccc21` [Compound 317], the pIC50 on α4β7 integrin was 7.00 to 8.00; at α4β1 integrin (setting [1]) it was less than 6.00.

Regarding `CC[C@@H](Nc1cc(F)c(C(=O)N[C@@H](Cc2cccc3c(-c4c(C(F)(F)F)c5ccccc5n(C)c4=O)cccc23)C(=O)O)c(F)c1)C(F)(F)F` [Compound 321], the figures for the pIC50 on α4β7 integrin and at α4β1 integrin (setting [1]) were 7.00 to 8.00 and less than 6.00, respectively.

Take `CN(C)Cc1cccc(F)c1C(=O)N[C@@H](Cc1cccc2c(-c3cccc4ccncc34)cccc12)C(=O)O` [Compound 357]: the negative-log IC50 (pIC50) against α4β7 integrin was 7.00 to 8.00; on α4β1 integrin (setting [1]) it was less than 6.00.

With `O=C(N[C@@H](Cc1cccc2c(-c3cccc4ccncc34)cccc12)C(=O)O)c1c(F)cc(N2CCOC[C@@H]2C(F)(F)F)cc1CN1CCC(F)(F)CC1` [Compound 301], the pIC50 on α4β7 integrin is 7.00 to 8.00; at α4β1 integrin (setting [1]), less than 6.00.

Regarding `Cn1c(C(F)(F)F)cc(C(F)(F)F)c(-c2cccc3c(C[C@H](NC(=O)[C@]4(C)CC[C@@H](N5CCC(F)(F)CC5)CC4)C(=O)O)cccc23)c1=O` (single isomer, unassigned) [Compound 405], the negative-log IC50 (pIC50) is 7.00 to 8.00 on α4β7 integrin and less than 6.00 on α4β1 integrin (setting [1]).

Consider `CN(C)CCc1ccc2c(c1)c(C(F)(F)F)c(-c1cccc3c(C[C@H](NC(=O)c4c(F)cc(N5CCOC[C@@H]5C(F)(F)F)cc4F)C(=O)O)cccc13)c(=O)n2C` [Compound 708], for which the pIC50 on α4β7 integrin (protocol not given) was more than 8.00; at α4β1 integrin (setting [2]), 6.00 to 7.00.

`Cn1c(=O)c(-c2cccc3c(C[C@H](NC(=O)[C@]4(C)CC[C@H](N5CCOC[C@@H]5C(F)(F)F)CC4)C(=O)O)cccc23)c(C(F)(F)F)c2ccccc21` (single isomer, unassigned) [Compound 347]: the pIC50 against α4β7 integrin was 7.00 to 8.00; at α4β1 integrin (setting [1]), less than 6.00.

As to `CN(C)Cc1ccc2c(-c3cccc4c(C[C@H](NC(=O)C5(C)CCN(CC(F)(F)F)CC5)C(=O)O)cccc34)nccc2c1` [Compound 583], the negative-log IC50 (pIC50) against α4β7 integrin is 7.00 to 8.00; on α4β1 integrin (setting [1]), less than 6.00.

For `Cn1c(=O)c(-c2cccc3c(C[C@H](NC(=O)[C@]4(C)CC[C@H](N5CCC(F)(F)CC5)CC4)C(=O)O)cccc23)c(C(F)(F)F)c2ccccc21` [Compound 402], the pIC50 against α4β7 integrin and at α4β1 integrin (setting [1]) was less than 6.00 each time.

`Cn1c(=O)c(-c2cccc3c(C[C@H](NC(=O)C4(C)CCN(C5CCOCC5)CC4)C(=O)O)cccc23)c(C(F)(F)F)c2ccccc21` [Compound 362]: the pIC50 is 7.00 to 8.00 at α4β7 integrin and less than 6.00 on α4β1 integrin (setting [1]).

Take `Cn1c(=O)c(-c2cccc3c(C[C@H](NC(=O)c4c(F)cc(N(CC(F)(F)F)C5COC5)cc4F)C(=O)O)cccc23)c(C(F)(F)F)c2ccccc21` [Compound 380]: the pIC50 was 7.00 to 8.00 on α4β7 integrin and less than 6.00 at α4β1 integrin (setting [1]).

For the compound `Cc1n[nH]c(C)c1-c1ccc(F)c(C(=O)N[C@@H](Cc2cccc3c(-c4c(C(F)(F)F)c5ccccc5n(C)c4=O)cccc23)C(=O)O)c1F` [Compound 309], the results for the pIC50 against α4β7 integrin and on α4β1 integrin (setting [1]) were 7.00 to 8.00 and less than 6.00, respectively.

For the compound `Cn1c(=O)c(-c2cccc3c(C[C@H](NC(=O)C4(C)CCN([C@@H]5CCOC5)CC4)C(=O)O)cccc23)c(C(F)(F)F)c2ccccc21` [Compound 414], the results for the negative logarithm of the IC50 (pIC50) against α4β7 integrin and on α4β1 integrin (setting [1]) were more than 8.00 and less than 6.00, respectively.

Regarding `CO[C@H](C)c1cc(F)c(C(=O)N[C@@H](Cc2cccc3c(-c4c(C(F)(F)F)c5ccccc5n(C)c4=O)cccc23)C(=O)O)c(F)c1` [Compound 375], the pIC50 at α4β7 integrin was 6.00 to 7.00; on α4β1 integrin (setting [1]) it was less than 6.00.

Consider `Cn1c(=O)c(-c2cccc3c(C[C@H](NC(=O)c4c(F)cc5cnn(CC(F)(F)F)c5c4F)C(=O)O)cccc23)c(C(F)(F)F)c2ccccc21` [Compound 322], for which the pIC50 at α4β7 integrin was 7.00 to 8.00; on α4β1 integrin (setting [1]), 6.00 to 7.00.

In the case of `CN1CCN(Cc2cccc(F)c2C(=O)N[C@@H](Cc2cccc3c(-c4c(C(F)(F)F)c5ccccc5n(C)c4=O)cccc23)C(=O)O)CC1` [Compound 353], the values for the pIC50 against α4β7 integrin and at α4β1 integrin (setting [1]) were 7.00 to 8.00 and less than 6.00, respectively.

In the case of `Cn1c(=O)c(-c2cccc3c(C[C@H](NC(=O)c4c(F)cc(N5CCCC[C@@H]5C(F)(F)F)cc4F)C(=O)O)cccc23)c(C(F)(F)F)c2ccccc21` [Compound 318], the pIC50 against α4β7 integrin is 6.00 to 7.00; on α4β1 integrin (setting [1]), less than 6.00.

For `Cc1cncc(C)c1-c1ccc(F)c(C(=O)N[C@@H](Cc2cccc3c(-c4c(C(F)(F)F)c5ccccc5n(C)c4=O)cccc23)C(=O)O)c1F` [Compound 314], the values for the pIC50 against α4β7 integrin and at α4β1 integrin (setting [1]) were 7.00 to 8.00 and less than 6.00, respectively.

In the case of `COCCN(CC(F)(F)F)c1cc(F)c(C(=O)N[C@@H](Cc2cccc3c(-c4c(C(F)(F)F)c5ccccc5n(C)c4=O)cccc23)C(=O)O)c(F)c1` [Compound 385], the pIC50 is 7.00 to 8.00 on α4β7 integrin and less than 6.00 at α4β1 integrin (setting [1]).

For the compound `O=C(N[C@@H](Cc1cccc2c(-n3c(C(F)(F)F)cccc3=O)cccc12)C(=O)O)c1c(F)cccc1F` [Compound 1040], the pIC50 at α4β7 integrin (protocol not given) is 7.00 to 8.00; on α4β1 integrin (setting [2]), less than 6.00.

Regarding `Cn1c(=O)c(-c2cccc3c(C[C@H](NC(=O)[C@]4(C)CC[C@@H](N5CCOC[C@@H]5C(F)(F)F)CC4)C(=O)O)cccc23)c(C(F)(F)F)c2ccccc21` [Compound 346], the negative-log IC50 (pIC50) against α4β7 integrin is 7.00 to 8.00; at α4β1 integrin (setting [1]), less than 6.00.

On to `Cn1c(=O)c(-c2cccc3c(C[C@H](NC(=O)c4c(F)cc(N(CC(F)(F)F)CC(F)(F)F)cc4F)C(=O)O)cccc23)c(C(F)(F)F)c2ccccc21` [Compound 324], for which the pIC50 at α4β7 integrin is 7.00 to 8.00; on α4β1 integrin (setting [1]), less than 6.00.

On to `Cc1cccc(C)c1-c1nc(C)c(C(=O)N[C@@H](Cc2cccc3c(-c4c(C(F)(F)F)c5ccccc5n(C)c4=O)cccc23)C(=O)O)n1C` [Compound 330], for which the pIC50 on α4β7 integrin was 7.00 to 8.00; at α4β1 integrin (setting [1]) it was less than 6.00.

As for `CN(C)Cc1cc(-c2cccc3c(C[C@H](NC(=O)c4c(F)cc(N5CCOC[C@@H]5C(F)(F)F)cc4CN4CCOCC4)C(=O)O)cccc23)c2cnccc2c1` [Compound 294], the pIC50 against α4β7 integrin was more than 8.00; on α4β1 integrin (setting [1]) it was less than 6.00.

`CN(C)Cc1ccc2c(-c3cccc4c(C[C@H](NC(=O)[C@]5(C)CC[C@@H](N6CCOC[C@@H]6C(F)(F)F)CC5)C(=O)O)cccc34)nccc2c1` [Compound 581]: the values for the pIC50 on α4β7 integrin and on α4β1 integrin (setting [1]) were 7.00 to 8.00 and less than 6.00, respectively.

For the compound `Cn1c(=O)c(-c2cccc3c(C[C@H](NC(=O)c4c(F)cc(C5CCC(F)(F)CC5)cc4F)C(=O)O)cccc23)c(C(F)(F)F)c2ccccc21` [Compound 381], the values for the pIC50 against α4β7 integrin and at α4β1 integrin (setting [1]) were 6.00 to 7.00 and less than 6.00, respectively.

Turning to `CN(C)Cc1ccc2c(-c3cccc4c(C[C@H](NC(=O)[C@]5(C)CC[C@@H](N6CCC(F)(F)CC6)CC5)C(=O)O)cccc34)nccc2c1` [Compound 585], the figures for the pIC50 against α4β7 integrin and on α4β1 integrin (setting [1]) were more than 8.00 and less than 6.00, respectively.

`CN(C)Cc1ccc2c(c1)c(C(F)(F)F)c(-c1cccc3c(C[C@H](NC(=O)c4c(F)cc(N5CCOC[C@@H]5C(F)(F)F)cc4F)C(=O)O)cccc13)c(=O)n2C` [Compound 698]: the negative-log IC50 (pIC50) against α4β7 integrin (protocol not given) is more than 8.00; at α4β1 integrin (setting [2]) it was 6.00 to 7.00.

For the compound `Cn1c(=O)c(-c2cccc3c(C[C@H](NC(=O)c4c(F)cc(NC5COC5)cc4F)C(=O)O)cccc23)c(C(F)(F)F)c2ccccc21` [Compound 378], the figures for the pIC50 against α4β7 integrin and at α4β1 integrin (setting [1]) were 7.00 to 8.00 and less than 6.00, respectively.

In the case of `CN(C)Cc1cccc2c(-c3cccc4c(C[C@H](NC(=O)c5c(F)cc(N6CCOC[C@@H]6C(F)(F)F)cc5CN5CCOCC5)C(=O)O)cccc34)nccc12` [Compound 298], the pIC50 on α4β7 integrin was more than 8.00; on α4β1 integrin (setting [1]), less than 6.00.

`CN(C)c1ccc2c(c1)c(C(F)(F)F)c(-c1cccc3c(C[C@H](NC(=O)c4c(F)cc(N5CCOC[C@@H]5C(F)(F)F)cc4F)C(=O)O)cccc13)c(=O)n2C` [Compound 302]: the negative logarithm of the IC50 (pIC50) at α4β7 integrin was 7.00 to 8.00; at α4β1 integrin (setting [1]), less than 6.00.

Turning to `Cn1c(=O)c(-c2cccc3c(C[C@H](NC(=O)C4(C)CCN([C@H]5CCOC5)CC4)C(=O)O)cccc23)c(C(F)(F)F)c2ccccc21` [Compound 413], the pIC50 against α4β7 integrin was 7.00 to 8.00; at α4β1 integrin (setting [1]), less than 6.00.

For `CN1CCN(Cc2cc(N3CCOC[C@@H]3C(F)(F)F)cc(F)c2C(=O)N[C@@H](Cc2cccc3c(-c4c(C(F)(F)F)c5ccccc5n(C)c4=O)cccc23)C(=O)O)CC1` [Compound 360], the pIC50 at α4β7 integrin was more than 8.00; on α4β1 integrin (setting [1]), less than 6.00.

Take `CO[C@@H]1C[C@H](c2cc(F)c(C(=O)N[C@@H](Cc3cccc4c(-c5c(C(F)(F)F)c6ccccc6n(C)c5=O)cccc34)C(=O)O)c(F)c2)N(C)C1` [Compound 465]: the pIC50 against α4β7 integrin was 6.00 to 7.00.

With `Cn1c(=O)c(-c2cccc3c(C[C@H](Nc4nccc(N5CCOC[C@@H]5C(F)(F)F)c4F)C(=O)O)cccc23)c(C(F)(F)F)c2ccccc21` [Compound 326], the pIC50 against α4β7 integrin is less than 6.00.
